Drawing on US10125098B2, “Therapeutic compounds and methods of use thereof” (GENENTECH, INC., priority 2014, dated 2018), this text covers IC50 for 19 compounds.

pIC50: −log10 of the molar value. Where a name gives a salt, the structure may show the parent alone. Read-outs that look alike come from different tables or passages of the source. A value given as a limit tells only on which side of the number the result lay.

One data set deals with T1, NaV1.5 (Homo sapiens, UniProt Q14524).
T1 construct: permanently transfected with an expression vector containing the full-length cDNA coding for the desired human sodium channel α-subunit; expressed in transfected cells; host or cells: HEK-293
In words: Patch voltage clamp electrophysiology assay (EP), NaV1.5. The class given is cell-based. The following applies: HEK-293 cells stably expressing NaV1.5 with β1 subunit, whole-cell patch clamp, membrane potential −60 mV (inactivated state). The method, then: (§1) The following patch voltage clamp electrophysiology studies were performed on representative compounds of the invention using human embryonic kidney cells (HEK), permanently transfected with an expression vector containing the full-length cDNA coding for the desired human sodium channel α-subunit, grown in culture media containing 10% FBS, 1% PSG, and 0.5 mg/mL G418 at 37° C. with 5% CO2. […] NaV1.7 and NaV1.5 cDNAs (NM_002977 and AC137587; SCN5A, respectively) were stably expressed in HEK-293 cells. The β1 subunit was coexpressed in both the NaV1.7 and NaV1.5 cell lines.
(§2) Sodium currents were measured using the patch clamp technique in the whole-cell configuration using either a PatchXpress automated voltage clamp or manually using an Axopatch 200B (Axon Instruments) or Model 2400 (A-M systems) amplifier. The manual voltage clamp protocol was as follows: Borosilicate glass micropipettes were fire-polished to a tip diameter yielding a resistance of 2-4 Mohms in the working solutions. The pipette was filled with a solution comprised of: 5 mM NaCl, 10 mM CsCl, 120 mM CsF, 0.1 mM CaCl2, 2 mM MgCl2, 10 mM HEPES, 10 mM EGTA; and adjusted to pH 7.2 with CsOH. The external solution had the following composition: 140 mM NaCl, 5 mM KCl, 2 mM CaCl2, 1 mM MgCl2, 10 mM HEPES; and adjusted to pH 7.4 with NaOH. In some studies, the external sodium was reduced by equimolar replacement with choline. Osmolarity in the CsF internal and NaCl external solutions was adjusted to 300 mOsm/kg and 310 mOsm/kg with glucose, respectively. All recordings were performed at ambient temperature in a bath chamber with a volume of 150 μL. Control sodium currents were measured in 0.5% DMSO. Controls and representative compounds of the invention were applied to the recording chamber through a 4-pinch or 8-pinch valve bath perfusion system manufactured by ALA Scientific Instruments.
(§3) Series resistance compensation was applied (60-80%). […] All statistics in this study are given as mean±SD.
(§4) The membrane potential was maintained at a voltage where inactivation of the channel is complete (which was −60 mV for both NaV1.7 and NaV1.5). The voltage is then stepped back to a very negative (Vhold=[…]) voltage for 20 ms and then a test pulse is applied to quantify the compound block. […] The percent decrease in sodium current following wash-on of compound was taken as the percent block of sodium channels.

The target in another data set is T2, human NaV1.7 (Homo sapiens, UniProt Q15858).
T2 construct: permanently transfected with an expression vector containing the full-length cDNA coding for the desired human sodium channel α-subunit; expressed in transfected cells; host or cells: HEK-293
The data set is described as follows: Patch voltage clamp electrophysiology assay (EP), NaV1.7. The class given is cell-based. The note with it: HEK-293 cells stably expressing NaV1.7 with β1 subunit; whole-cell patch clamp, membrane potential −60 mV (inactivated state). The procedure: as §1, §2, §3, §4

A further data set addresses T3, hNav1.7 (Homo sapiens, UniProt Q15858).
T3 construct: expressed in transfected cells
In words: Tritiated compound binding (LBA) to membranes from cells expressing hNav1.7 and the β1 subunit, competitive binding. The note with it: competitive binding vs 100 pM [3H]compound, 18 h, room temperature, membranes with hNav1.7 and β1 subunit. The method, boiled down:
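Competitive displacement of 100 pM [3H]compound (tritiated methyl analogue of formula (I)) from hNav1.7/β1 membranes, 18 h at room temperature in NaCl/Tris pH 7.4 buffer containing 0.01% BSA. 1 μM unlabeled compound set non-specific binding. Bound label quantified by scintillation after filtration; 4-parameter fit gave IC50.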

[1] abbreviates: human, HEK-293 cells stably expressing human NaV1.5 with β1 subunit, pH 7.4.

T1 sequence (Q14524 whole entry): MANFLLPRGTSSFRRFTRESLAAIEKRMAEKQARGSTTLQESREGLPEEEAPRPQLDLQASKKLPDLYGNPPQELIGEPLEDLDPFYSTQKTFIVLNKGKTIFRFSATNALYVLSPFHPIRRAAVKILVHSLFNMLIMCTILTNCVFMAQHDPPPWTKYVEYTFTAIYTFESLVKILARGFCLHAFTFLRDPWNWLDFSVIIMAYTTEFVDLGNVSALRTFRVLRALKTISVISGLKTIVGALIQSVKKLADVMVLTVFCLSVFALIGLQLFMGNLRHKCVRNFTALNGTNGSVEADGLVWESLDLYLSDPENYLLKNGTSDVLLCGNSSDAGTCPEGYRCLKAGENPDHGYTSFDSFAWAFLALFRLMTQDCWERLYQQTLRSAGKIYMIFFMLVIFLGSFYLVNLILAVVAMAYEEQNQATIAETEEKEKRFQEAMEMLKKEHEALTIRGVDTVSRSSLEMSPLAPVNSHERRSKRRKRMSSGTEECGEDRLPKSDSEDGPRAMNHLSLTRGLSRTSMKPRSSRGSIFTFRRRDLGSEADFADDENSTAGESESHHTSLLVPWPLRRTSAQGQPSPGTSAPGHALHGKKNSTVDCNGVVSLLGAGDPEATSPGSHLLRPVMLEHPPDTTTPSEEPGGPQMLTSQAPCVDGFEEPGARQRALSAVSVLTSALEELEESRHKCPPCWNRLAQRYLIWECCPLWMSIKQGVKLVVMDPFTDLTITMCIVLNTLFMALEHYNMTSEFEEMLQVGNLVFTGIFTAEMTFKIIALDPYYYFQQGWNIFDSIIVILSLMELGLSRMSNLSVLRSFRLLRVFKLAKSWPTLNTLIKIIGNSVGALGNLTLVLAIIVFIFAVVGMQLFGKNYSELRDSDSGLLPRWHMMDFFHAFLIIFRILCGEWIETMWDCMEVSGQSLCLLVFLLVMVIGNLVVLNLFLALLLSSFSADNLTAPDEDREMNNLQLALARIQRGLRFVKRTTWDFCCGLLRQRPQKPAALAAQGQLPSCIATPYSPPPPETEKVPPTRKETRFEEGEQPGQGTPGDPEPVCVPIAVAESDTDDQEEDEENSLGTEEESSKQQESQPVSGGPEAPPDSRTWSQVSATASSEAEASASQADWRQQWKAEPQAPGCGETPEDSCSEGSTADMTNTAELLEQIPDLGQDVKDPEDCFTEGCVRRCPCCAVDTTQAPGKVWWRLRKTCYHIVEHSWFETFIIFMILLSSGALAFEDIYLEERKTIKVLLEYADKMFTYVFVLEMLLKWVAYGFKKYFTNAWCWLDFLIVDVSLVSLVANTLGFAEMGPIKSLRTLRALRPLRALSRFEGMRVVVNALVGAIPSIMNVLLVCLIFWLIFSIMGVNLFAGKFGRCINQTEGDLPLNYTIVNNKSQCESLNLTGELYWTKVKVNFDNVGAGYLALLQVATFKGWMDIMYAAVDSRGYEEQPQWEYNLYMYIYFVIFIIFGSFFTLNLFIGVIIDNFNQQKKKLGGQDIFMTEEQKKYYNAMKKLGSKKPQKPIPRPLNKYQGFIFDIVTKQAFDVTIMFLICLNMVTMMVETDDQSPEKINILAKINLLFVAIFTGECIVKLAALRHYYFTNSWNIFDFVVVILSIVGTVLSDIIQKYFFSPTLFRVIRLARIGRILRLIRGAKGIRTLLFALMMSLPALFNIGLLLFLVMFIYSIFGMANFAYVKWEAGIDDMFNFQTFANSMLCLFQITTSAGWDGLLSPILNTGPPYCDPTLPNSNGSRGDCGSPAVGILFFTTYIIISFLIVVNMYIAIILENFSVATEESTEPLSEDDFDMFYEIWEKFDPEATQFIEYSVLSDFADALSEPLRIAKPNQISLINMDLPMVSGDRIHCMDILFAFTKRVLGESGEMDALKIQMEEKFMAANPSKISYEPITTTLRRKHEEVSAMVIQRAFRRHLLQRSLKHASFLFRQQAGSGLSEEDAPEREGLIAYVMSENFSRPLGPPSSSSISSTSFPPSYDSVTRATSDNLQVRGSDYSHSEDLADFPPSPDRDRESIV
T2 sequence (Q15858 1-1977 isoform Q15858-3): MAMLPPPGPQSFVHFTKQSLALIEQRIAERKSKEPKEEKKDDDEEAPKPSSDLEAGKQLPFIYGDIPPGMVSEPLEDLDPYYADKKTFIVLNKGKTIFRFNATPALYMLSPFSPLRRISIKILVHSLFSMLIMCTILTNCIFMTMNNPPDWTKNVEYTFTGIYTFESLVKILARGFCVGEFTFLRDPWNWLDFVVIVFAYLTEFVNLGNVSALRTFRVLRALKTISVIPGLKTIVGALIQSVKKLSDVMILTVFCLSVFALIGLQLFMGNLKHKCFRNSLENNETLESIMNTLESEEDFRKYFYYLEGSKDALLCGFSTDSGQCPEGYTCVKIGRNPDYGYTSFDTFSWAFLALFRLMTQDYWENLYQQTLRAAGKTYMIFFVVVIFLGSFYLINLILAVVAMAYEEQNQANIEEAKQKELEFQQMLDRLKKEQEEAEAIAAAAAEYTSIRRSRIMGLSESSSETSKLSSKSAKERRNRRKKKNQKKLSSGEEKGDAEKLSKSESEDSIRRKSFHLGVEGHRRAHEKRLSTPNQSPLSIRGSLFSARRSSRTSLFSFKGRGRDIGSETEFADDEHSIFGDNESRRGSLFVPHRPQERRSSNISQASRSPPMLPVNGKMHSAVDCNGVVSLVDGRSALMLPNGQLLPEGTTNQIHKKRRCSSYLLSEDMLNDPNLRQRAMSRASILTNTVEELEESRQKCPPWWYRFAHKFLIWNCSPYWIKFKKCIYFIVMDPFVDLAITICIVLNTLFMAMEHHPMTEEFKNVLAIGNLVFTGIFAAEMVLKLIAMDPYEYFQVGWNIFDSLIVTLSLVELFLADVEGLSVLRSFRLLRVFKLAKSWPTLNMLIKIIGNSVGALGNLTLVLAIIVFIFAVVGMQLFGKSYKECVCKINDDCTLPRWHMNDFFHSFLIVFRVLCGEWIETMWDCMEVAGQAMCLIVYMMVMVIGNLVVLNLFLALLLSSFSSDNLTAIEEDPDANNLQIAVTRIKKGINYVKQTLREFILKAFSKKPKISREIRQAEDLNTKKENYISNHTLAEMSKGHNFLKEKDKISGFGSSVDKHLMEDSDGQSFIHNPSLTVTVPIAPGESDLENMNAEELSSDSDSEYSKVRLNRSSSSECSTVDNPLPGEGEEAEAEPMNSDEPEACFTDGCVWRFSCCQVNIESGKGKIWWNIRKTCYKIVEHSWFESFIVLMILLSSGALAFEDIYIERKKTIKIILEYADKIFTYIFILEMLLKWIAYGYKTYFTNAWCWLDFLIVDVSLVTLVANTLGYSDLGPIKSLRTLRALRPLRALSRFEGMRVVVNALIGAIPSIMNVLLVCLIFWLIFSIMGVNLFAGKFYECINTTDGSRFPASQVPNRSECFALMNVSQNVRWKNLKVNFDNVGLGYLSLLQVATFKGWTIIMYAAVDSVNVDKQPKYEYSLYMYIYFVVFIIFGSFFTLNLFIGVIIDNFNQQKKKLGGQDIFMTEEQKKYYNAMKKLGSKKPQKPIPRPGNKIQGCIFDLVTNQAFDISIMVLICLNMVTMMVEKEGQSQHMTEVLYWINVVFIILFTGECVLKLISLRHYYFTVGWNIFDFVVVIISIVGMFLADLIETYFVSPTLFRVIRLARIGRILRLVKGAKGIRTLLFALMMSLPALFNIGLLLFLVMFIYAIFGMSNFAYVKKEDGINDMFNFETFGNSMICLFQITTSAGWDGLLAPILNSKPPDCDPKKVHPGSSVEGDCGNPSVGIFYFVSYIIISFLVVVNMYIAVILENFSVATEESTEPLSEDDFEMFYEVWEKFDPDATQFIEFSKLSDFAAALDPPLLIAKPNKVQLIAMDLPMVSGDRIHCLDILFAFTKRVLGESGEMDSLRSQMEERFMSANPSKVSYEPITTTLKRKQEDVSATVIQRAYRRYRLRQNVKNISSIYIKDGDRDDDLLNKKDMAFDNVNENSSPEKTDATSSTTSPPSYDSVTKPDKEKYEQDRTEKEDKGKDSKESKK
T2 sequence (Q07699 19-218 partner): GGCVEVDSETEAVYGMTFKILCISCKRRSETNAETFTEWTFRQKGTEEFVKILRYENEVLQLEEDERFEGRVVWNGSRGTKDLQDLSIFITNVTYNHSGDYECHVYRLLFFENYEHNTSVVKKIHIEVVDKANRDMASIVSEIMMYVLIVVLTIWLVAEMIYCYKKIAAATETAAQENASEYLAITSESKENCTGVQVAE
T3 sequence (Q15858 1-1977 isoform Q15858-3): as the sequence (Q15858 1-1977 isoform Q15858-3) above
T3 sequence (Q07699 19-218 partner): as the sequence (Q07699 19-218 partner) above

For the compound `O=C(O)C1COCCN1C(=O)c1cc(C2CC2)c(OCC23CC4CC(CC(C4)C2)C3)cc1F` (stereo not drawn) [Example 72, 4-(4-(adamantan-1-ylmethoxy)-5-cyclopropyl-2-fluorobenzoyl)morpholine-3-carboxylic acid], the pIC50 at NaV1.5 (read-out: Nav1.5) is 4.62; against human NaV1.7, 5.25; on hNav1.7, 5.44.

Turning to `O=C(O)[C@H]1CSCN1C(=O)c1cc(C2CC2)c(OCC23CC4CC(CC(C4)C2)C3)cc1F` [Example 50, (4S)-3-[4-(1-adamantylmethoxy)-5-cyclopropyl-2-fluoro-benzoyl]thiazolidine-4-carboxylic acid], the values for the pIC50 at NaV1.5 (read-out: Nav1.5), at human NaV1.7 and on hNav1.7 were 4.71, 6.47 and 7.52, respectively.

On to `O=C(O)[C@@H]1CCCN1C(=O)c1cc(C2CC2)c(OC[C@@H]2CCN(C(c3ccccc3)c3ccccc3)C2)cc1F` (single isomer, unassigned) [Example 139b], for which the pIC50 at NaV1.5 (read-out: Nav1.5) was 4.66; on human NaV1.7 it was 5.15; at hNav1.7, 6.10.

Turning to `O=C(O)[C@@H]1CCCN1C(=O)c1cc(Cl)c(Oc2cnc(OCC(F)(F)F)c(Cl)c2)cc1F` [Example 191, (S)-1-(5-Chloro-4-((5-chloro-6-(2,2,2-trifluoroethoxy)pyridin-3-yl)oxy)-2-fluorobenzoyl)pyrrolidine-2-carboxylic acid trifluoroacetate], the pIC50 was no more than 4.52 against NaV1.5 (setting [1]), 4.72 against human NaV1.7 and 5.57 on hNav1.7.

Take `O=C(O)[C@@H]1C[C@@H](F)CN1C(=O)c1cc(C2CC2)c(OCC2CCN(Cc3noc(-c4ccccc4Cl)n3)CC2)cc1F` [Example 220, (2S, 4R)-1-(4-((1-((5-(2-chlorophenyl)-1,2,4-oxadiazol-3-yl)methyl)piperidin-4-yl)methoxy)-5-cyclopropyl-2-fluorobenzoyl)-4-fluoropyrrolidine-2-carboxylic acid]: the pIC50 on NaV1.5 (setting [1]) is no more than 4.52; at human NaV1.7 it was 6.08; on hNav1.7, 6.80.

Turning to `CC(C)[C@@H](C(=O)O)N(C)C(=O)c1cc(C2CC2)c(OCC23CC4CC(CC(C4)C2)C3)cc1F` [Example 67, N-(4-(adamantan-1-ylmethoxy)-5-cyclopropyl-2-fluorobenzoyl)-N-methyl-L-valine], the figures for the pIC50 at NaV1.5 (read-out: Nav1.5), on human NaV1.7 and on hNav1.7 were 5.12, 5.52 and 6.00, respectively.

Turning to `O=C(O)[C@@H]1[C@H]2CC[C@H](C2)N1C(=O)c1cc(C2CC2)c(OCC23CC4CC(CC(C4)C2)C3)cc1F` [Example 146, (1S,2S,4R)-3-[4-(1-adamantylmethoxy)-5-cyclopropyl-2-fluoro-benzoyl]-3-azabicyclo[2.2.1]heptane-2-carboxylic acid], the pIC50 is 5.08 on NaV1.5 (read-out: Nav1.5), 5.82 against human NaV1.7 and 6.74 on hNav1.7.

On to `O=C(O)[C@@H]1CCCN1C(=O)c1cc(C2CC2)c(OCC2(F)CN(Cc3ccc(Cl)cc3C(F)(F)F)C2)cc1F` [Example 99, 1-(4-((1-(4-chloro-2-(trifluoromethyl)benzyl)-3-fluoroazetidin-3-yl)methoxy)-5-cyclopropyl-2-fluorobenzoyl)pyrrolidine-2-carboxylic acid trifluoroacetic acid salt], for which the results for the pIC50 at NaV1.5 (setting [1]), on human NaV1.7 and at hNav1.7 were no more than 4.52, 6.26 and 6.64, respectively.

In the case of `O=C(NC(C(=O)O)C1CC1)c1cc(C2CC2)c(COc2cc(Cl)cc(OC(F)(F)F)c2)cc1F` (stereo in doubt) [Example 120, (R)-2-(4-((3-chloro-5-(trifluoromethoxy)phenoxy)methyl)-5-cyclopropyl-2-fluorobenzamido)-2-cyclopropylacetic acid], the pIC50 was 4.85 on NaV1.5 (read-out: Nav1.5), 6.54 against human NaV1.7 and 7.57 on hNav1.7.

Consider `O=C(O)[C@@H]1CCCN1C(=O)c1cc(C2CC2)c(OC2CN(C(c3ccccc3)c3ccccc3)C2)cc1F` [Example 141, (S)-1-(4-(1-benzhydrylazetidin-3-yloxy)-5-cyclopropyl-2-fluorobenzoyl)pyrrolidine-2-carboxylic acid], for which the pIC50 against NaV1.5 (setting [1]) was no more than 4.52; at human NaV1.7 it was 5.21; on hNav1.7 it was 6.31.

Turning to `O=C(O)[C@@H]1CCCN1C(=O)c1cc(C2CC2)c(OCC2CCN(Cc3cc(F)cc(Cl)c3)CC2)cc1F` [Example 190, (S)-1-(4-((1-(3-chloro-5-fluorobenzyl)piperidin-4-yl)methoxy)-5-cyclopropyl-2-fluorobenzoyl)pyrrolidine-2-carboxylic acid], the pIC50 against NaV1.5 (setting [1]) was no more than 4.52; at human NaV1.7, 5.54; at hNav1.7, 6.72.

As to `CC(C)[C@H](NC(=O)c1cc(C2CC2)c(COc2cc(Cl)cc(OC(F)(F)F)c2)cc1F)C(=O)O` [Example 183, (S)-2-(4-((3-chloro-5-(trifluoromethoxy)phenoxy)methyl)-5-cyclopropyl-2-fluorobenzamido)-3-methylbutanoic acid], the pIC50 was 5.04 on NaV1.5 (read-out: Nav1.5), 5.72 against human NaV1.7 and 7.51 on hNav1.7.

For `O=C(O)[C@@H]1C[C@@H](F)CN1C(=O)c1c(F)cc(OCC23CC4CC(CC(C4)C2)C3)cc1C1CC1` [Example 204, (2S,4R)-1-(4-(adamantan-1-ylmethoxy)-2-cyclopropyl-6-fluorobenzoyl)-4-fluoropyrrolidine-2-carboxylic acid], the pIC50 on NaV1.5 (read-out: Nav1.5) is 4.64; against human NaV1.7, 5.11; on hNav1.7 it was 6.25.

Take `O=C(O)[C@@H]1CCCN1C(=O)c1cc(C2CC2)c(OCC23CCCCC2C3)cc1F` (stereo partly drawn) [Example 69, (4-(bicyclo[4.1.0]heptan-1-ylmethoxy)-5-cyclopropyl-2-fluorobenzoyl)-L-proline]: the values for the pIC50 at NaV1.5 (setting [1]), against human NaV1.7 and on hNav1.7 were no more than 4.52, 6.28 and 6.77, respectively.

On to `CO[C@H]1CCN(C(=O)c2cc(C3CC3)c(OCC34CC5CC(CC(C5)C3)C4)cc2F)[C@@H]1C(=O)O` [Example 76, (2S,3 S)-1-(4-(adamantan-1-ylmethoxy)-5-cyclopropyl-2-fluorobenzoyl)-3-methoxypyrrolidine-2-carboxylic acid], for which the pIC50 at NaV1.5 (read-out: Nav1.5) was 4.77; at human NaV1.7 it was 6.00; on hNav1.7, 7.06.

For the compound `CC(C)(C)[C@H](NC(=O)c1cc(C2CC2)c(OCC23CC4CC(CC(C4)C2)C3)cc1F)C(=O)O` [Example 52, (S)-2-(4-(adamantan-1-ylmethoxy)-5-cyclopropyl-2-fluorobenzamido)-3,3-dimethylbutanoic acid], the pIC50 on NaV1.5 (read-out: Nav1.5) was 5.12; against human NaV1.7, 5.85; on hNav1.7 it was 7.01.

Consider `O=C(O)C1CC=NN1C(=O)c1cc(C2CC2)c(OCC23CC4CC(CC(C4)C2)C3)cc1F` (stereo not drawn) [Example 96, 1-(4-(adamantan-1-ylmethoxy)-5-cyclopropyl-2-fluorobenzoyl)-4,5-dihydro-1H-pyrazole-5-carboxylic acid], for which the pIC50 was no more than 4.52 against NaV1.5 (setting [1]), 5.82 on human NaV1.7 and 6.42 at hNav1.7.

As to `C[C@@H]1SCN(C(=O)c2cc(C3CC3)c(OCC34CC5CC(CC(C5)C3)C4)cc2F)[C@H]1C(=O)O` [Example 142b, (4S,5S)-3-[4-(1-adamantylmethoxy)-5-cyclopropyl-2-fluoro-benzoyl]-5-methyl-thiazolidine-4-carboxylic acid], the values for the pIC50 at NaV1.5 (read-out: Nav1.5), against human NaV1.7 and at hNav1.7 were 4.82, 5.52 and 6.12, respectively.

In the case of `CC(c1cc(Cl)cc(Cl)c1)N1CCC(COc2cc(F)c(C(=O)N3[C@@H](C(=O)O)C[C@H]4CCC[C@H]43)cc2C2CC2)CC1` (stereo partly drawn) [Example 172, (2R,3R,6R)-1-(5-cyclopropyl-4-((1-((R)-1-(3,5-dichlorophenyl)ethyl)piperidin-4-yl)methoxy)-2-fluorobenzoyl)octahydrocyclopenta[b]pyrrole-2-carboxylic acid], the pIC50 on NaV1.5 (read-out: Nav1.5) is 4.85; against human NaV1.7, 5.38; on hNav1.7, 6.00.
